Key:
[1] = test system: NAD biosynthetic genes in the liver; test: Hepatic NAD biosynthetic gene expression and NAD metabolites; format: in vivo; conditions: lactating mice with vs without NR
From the text: Lactation boosts NAD biosynthetic genes (FIG. 11A) and NAD levels (FIG. 11B) in the liver. […]. Lactation seems to depress levels of NR (FIG. 11C) and Nam (FIG. 11D) in the liver.

[2] = NAD precursor vitamins in milk; format: in vivo, mice
Method: (§1) A series of in vivo murine experiments were performed to evaluate the effects of nicotinamide riboside on milk production. […] As shown in FIGS. 8A-C, the concentration of protein, carbohydrate and fat in the milk of NR-supplemented mothers was normal. Because there is approximately 2-fold more milk produced by NR-supplemented mothers, NR-supplemented mothers transmit more calories to their offspring, which thereby assists maternal weight loss and neonatal development. In FIG. 9A, the concentration of NAD precursor vitamins in the milk from control mothers and NR-supplemented mothers was determined. […] Oral NR was labeled with heavy atoms in the nicotinamide and ribose moieties of NR and this was provided to lactating mothers by gavage.

[3] = Transmission of heavy-atom labeled oral NR into milk; format: in vivo, mice; conditions: oral NR labeled with heavy atoms in nicotinamide and ribose moieties, gavage to lactating mothers
Method: FIGS. 9A-B. Orally administered NR is not directly transmitted via milk.
as §1

[4] = Pup growth and weanling body composition (post-partum maternal NR); format: in vivo, mice
Method: FIG. 15. Maternal NR increases pup growth early in the neonatal period. Neonatal pups body weight from Day 0 to Day 14 (n=5 litter per group). FIGS. 16A-D. 21 day old pups of NR-supplemented mothers are bigger. Males and females were analyzed separately. The order of the bars from left to right are: males of normal chow (NC) mothers (white with light grey outline), followed by males of NR-supplemented mothers (filled light grey), followed by females of NC mothers (white with dark grey outline), followed by females of NR-supplemented mothers (filled dark grey). […] As shown in FIG. 16A-C, 21 day old weanlings of NR-supplemented mothers are larger in overall mass, fat mass and lean mass.

[5] = Offspring fasting glucose (Example 1); format: in vivo, mice
Method: Female C57BL/6N mice were raised in 12 hour light:dark cycles on Teklad 2920X chow (NC). For 12 weeks prior to mating with a single C57BL/6N male, females were on either NC (n=4) or NC+NR (n=4). Females were maintained on the same diet through gestation and weaning, which was at 21 days after birth. […] The mild hypoglycemia of mice on standard chow was not expected and the improvement in glycemic control by virtue of supplementing mothers was unexpected.

[6] = test system: UCP1; test: UCP1 expression in mammary tissue; format: in vivo, mice; conditions: NR-supplemented vs NC mothers
From the text: FIGS. 14A-B. Postpartum NR supplementation promotes mammary gland development (n=5 mice per group) (FIG. 14A). NR increases heat loss by increasing expression of UCP1 (FIG. 14B). […] In addition, the size of the mammary tissue itself is greater in NR-supplemented mothers than in non-supplemented mothers (FIG. 14A).

[7] = Pup post-fasting glucose and hepatic glycogen (post-partum maternal NR); format: in vivo, mice
From the text: FIGS. 17A-C. 22 day old pups of NR-supplemented mothers have improved post-fasting glucose homoeostasis with higher gluconeogenic gene expression and higher hepatic glycogen storage. Not only are the offspring of NR-supplemented mothers a bit bigger, they also have better glycemic control. This is due to better gluconeogenic gene expression and higher glycogen storage. The order of the bars from left to right are: males of normal chow (NC) mothers (white with light grey outline), followed by males of NR-supplemented mothers (filled light grey), followed by females of NC mothers (white with dark grey outline), followed by females of NR-supplemented mothers (filled dark grey). Earlier it was shown that supplementation of females during their pregnancy and during the lactation period with NR produced pups with better glycemic control. […] Particularly as NR is not directly transmitted to offspring of NR-supplemented mothers, none of these effects of maternally supplemented NR could have been anticipated.

[8] = NR-supplemented vs non-supplemented mothers
[9] = 21 day old weanlings of NR-supplemented mothers

With `NC(=O)c1ccc[n+]([C@@H]2O[C@H](CO)[C@@H](O)[C@H]2O)c1` [NR, nicotinamide riboside] the “NAD biosynthetic genes and NAD levels in the liver” value [1] was “does not superinduce”, the “hepatic NAD biosynthetic gene expression” value [1] was “did not further increase” and the “levels of NR and Nam in the liver” value [1] was “depresses the accumulation of these metabolites in the liver even more”. For the same compound, the “NR concentration in milk” value [2, 8] was “moderately higher”, the “nicotinamide (Nam) concentration in milk” value [2, 8] was “moderately higher” and the “NAD precursor vitamins (total B3) transmitted” value ([2]; concentration coupled with larger milk volume) was “significantly more”. The “labeled species released into milk” value [3] was “only single labeled nicotinamide and no double-labeled NR”, the “brain weight of weanlings” value ([4]; 21 day old females) was “tend to have larger brain weight” and the “fat mass of weanlings” value [4, 9] was “larger”. For the same compound, the “lean mass of weanlings” value [4, 9] was “larger”, the “overall mass of weanlings” value [4, 9] was “larger” and the “neonatal size (pup body weight)” value ([4]; particularly at day 7 and 9) was “boosts neonatal size”. For the same compound, the “glucose after an overnight fast, mice raised by NR-supplemented mothers” value [5] was “better at maintaining glucose”, the “expression of UCP1 in mammary tissue” value [6] was “increase in expression” and the “post-fasting glucose homoeostasis of pups” value ([7]; 22 day old pups of NR-supplemented mothers) was “improved”. For the same compound, the “glycogen stored in liver” value ([7]; males and females whose mothers were NR-supplemented) was “stored more glycogen”.

From patent US11633421B2, “Use of NAD precursors for improving maternal health and/or offspring health” (UNIVERSITY OF IOWA RESEARCH FOUNDATION, priority 2016, dated 2023)
